One compound from article PMC12169663, “Deciphering the Tumor Uptake of Heterobivalent (SST2/Albumin) [^64Cu]Cu-NODAGA-cLAB-TATEs” (Journal of Medicinal Chemistry, 2025) can be followed below.

Series [1] is described as follows: Plasma stability assay, mouse plasma. The format is in vitro ADME. The source says:
Previously, we discovered that the ^64Cu-labeled NODAGA-cLAB-TATEs with a primary amide functionality within the albumin-binding moiety are subject to a metabolic transformation in mouse plasma. In fact, the primary amide is slowly hydrolyzed to the carboxylic acid, which turned out to be catalyzed by plasma carboxylesterases as proven by blocking this transformation in the presence of bis-para-nitrophenylphosphate. […] As this transformation entails also an increase in the binding affinity to albumin, there might be effects on the biodistribution in mice, in particular the blood circulation time. To investigate this, NODAGA-cLAB6-TATE was designed, with cLAB6 (N3Bz-D-Lys(MPB)-NH2) representing the D-configured pendant of cLAB4 (N3Bz-L-Lys(MPB)-NH2). […] However, the apparent half-lives for both compounds (≈13 and >24 h) are longer compared to the half-lives previously determined for [ ^ 64 Cu]-Cu-NODAGA-cLAB3-TATE and [ ^ 64 Cu]-Cu-NODAGA-cLAB4-TATE (≈6 and ≈3 h, respectively). For better comparability, the stability of [ ^ 64 Cu]-Cu-NODAGA-cLAB4-TATE was again examined with the same mouse plasma batch used for [ ^ 64 Cu]-Cu-NODAGA-cLAB5-TATE and [ ^ 64 Cu]-Cu-NODAGA-cLAB4- scr TATE. […] Therefore, the discrepancy with our previously reported stability data in mouse plasma might result from differences in the activity of plasma carboxylesterases in the obtained mouse plasma. However, the rate of amide hydrolysis is indeed lower for [ ^ 64 Cu]-Cu-NODAGA-cLAB4- scr TATE, independent of the mouse plasma batch, which might indicate that the actual amino acid sequence in these peptides affects the recognition by the plasma carboxylesterases.
2 Stability of the ^64Cu-labeled TATE derivatives in mouse plasma. (A) Radio-HPLC chromatograms of [^64Cu]-Cu-NODAGA-cLAB5-TATE (red), [^64Cu]-Cu-NODAGA-cLAB6-TATE (green), and [^64Cu]-Cu-NODAGA-cLAB- scr TATE (blue) after ^64Cu-labeling and incubation in mouse plasma for 24 h show the transformation of [^64Cu]-Cu-NODAGA-cLAB5-TATE and [^64Cu]-Cu-NODAGA-cLAB4- scr TATE into a metabolite of higher retention time (see the Discussion for explanation). (B) Plot of residual intact radioligands upon incubation with mouse plasma including nonlinear regression (black line) according to one-phase decay for [^64Cu]-Cu-NODAGA-cLAB5-TATE (red circles). The dotted lines represent fractions of 0.5 and 0.9. Data shown are mean values (±SD) from 1 to 3 experiments (each experiment was performed in single execution). […]
(§1) Plasma stability of the radioligands was done as previously described for NODAGA-cLAB-TATE and NODAGA-NES-TATEs. , Briefly, an aliquot of the radioligand was added to plasma and stability was assessed at different time points by withdrawing an aliquot, followed by protein precipitation and analysis by radio-HPLC.

Series [2] in a line: n-Octanol/PBS distribution coefficient (log D7.4).
Description: The log D7.4 values of the ^64Cu-labeled peptides were determined with the octanol partitioning method.
The determination of the log D7.4 value was done in triplicate as previously described. , Briefly, a sample of the radioligand was added to the 1:1 mixture of PBS/n-octanol. The radioactivity in a defined volume of each layer was measured (ISOMED 2100). The distribution coefficient was expressed as the logarithm of the ratio of counts per minute (cpm) measured in the n-octanol phase to the cpm measured in the PBS phase.
In a further series the target is T1, SST2 (Mus musculus, UniProt P30875).
T1 construct: a mouse pheochromocytoma cell line (MPC) with a high endogenous abundance of SST2 was used; endogenous in cells; host or cells: MPC (mouse pheochromocytoma) cells, intact
Nature of the series: Saturation binding analysis to SST2 using intact MPC cells.

Series [3] in a line: Plasma stability assay, human plasma. The settings on record: 37 °C, up to 24 h, single experiment, read-out: t1/2 (plasma), human. The format is in vitro ADME.
Excerpt: Previously, we discovered that the ^64Cu-labeled NODAGA-cLAB-TATEs with a primary amide functionality within the albumin-binding moiety are subject to a metabolic transformation in mouse plasma. In fact, the primary amide is slowly hydrolyzed to the carboxylic acid, which turned out to be catalyzed by plasma carboxylesterases as proven by blocking this transformation in the presence of bis-para-nitrophenylphosphate. […] As this transformation entails also an increase in the binding affinity to albumin, there might be effects on the biodistribution in mice, in particular the blood circulation time. To investigate this, NODAGA-cLAB6-TATE was designed, with cLAB6 (N3Bz-D-Lys(MPB)-NH2) representing the D-configured pendant of cLAB4 (N3Bz-L-Lys(MPB)-NH2). […] However, the apparent half-lives for both compounds (≈13 and >24 h) are longer compared to the half-lives previously determined for [ ^ 64 Cu]-Cu-NODAGA-cLAB3-TATE and [ ^ 64 Cu]-Cu-NODAGA-cLAB4-TATE (≈6 and ≈3 h, respectively). […]
as §1

Each structure is given as a SMILES string. *1 amine or outer side, *2 acyl side, *3 side chain or, on linkers, in order; H or OH if unused. Where a SMILES comes first, the peptide text is derived from it. Bridges are numbered along the chain shown (N, C = ends). [ ]: non-standard residue; d: D form. The star is where a group is joined. Ala(1-(4-CO-Ph)triazol-4-yl) = O=C([C@H](Cc1cn(-c2ccc(C(=O)[*:3])cc2)nn1)N[*:1])[*:2]; X1 = O=C(O)CN1CCN(CC(=O)O)CCN([C@H](CCC(=O)*)C(=O)O)CC1; X2 = Cc1ccc(CCCC(=O)NCCCC[C@H](N*)C(N)=O)cc1; AEEA = NCCOCCOCC(=O)O

T1 sequence (P30875 whole entry): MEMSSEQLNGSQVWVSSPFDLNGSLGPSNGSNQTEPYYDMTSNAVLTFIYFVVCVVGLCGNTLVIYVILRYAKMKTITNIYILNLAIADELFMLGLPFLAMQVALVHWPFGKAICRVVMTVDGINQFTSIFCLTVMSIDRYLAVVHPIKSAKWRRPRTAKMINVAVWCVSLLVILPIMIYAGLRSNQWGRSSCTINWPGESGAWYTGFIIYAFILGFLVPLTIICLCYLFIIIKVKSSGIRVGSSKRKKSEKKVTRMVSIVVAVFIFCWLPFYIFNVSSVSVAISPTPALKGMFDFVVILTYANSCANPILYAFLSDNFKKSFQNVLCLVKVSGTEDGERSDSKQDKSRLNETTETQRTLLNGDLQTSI
Description for SST2: Binding assay was performed as previously described. , A number of 3 × 10^5 cells/cm^2 were seeded in collagen-coated 48-well microplates (CELLSTAR 48 Well Cell Culture Multiwell Plates, Polystyrene, Greiner Bio-One, item no. 677180) and grown for 3 days. For binding assays, the cell culture medium was removed and replaced by fresh medium supplemented with the radioligand (Am = 25 MBq/nmol) at increasing final concentrations between 0.321 and 40 nM (final sample volume: 0.2 mL). Nonspecific cell binding was measured in the presence of nonlabeled DOTA-TATE or Acetyl-TATE at a final concentration of 1 μM. Nonspecific binding to plastic surfaces was determined in cell-free wells at radioligand concentrations of 0.312, 1.25, 5, and 20 nM (with and without 1 μM nonlabeled DOTA-TATE or Acetyl-TATE; the values at the other radioligand concentrations were derived by linear regression). Samples were incubated for 60 min at 37 °C. Incubation was stopped by washing with ice-cold Dulbecco’s PBS. Cells were lysed with 0.1 M NaOH containing 1% (w/v) SDS. Activity was measured in cell homogenates and in a series of radioligand standards containing increasing molar amounts between 0.06 and 8 pmol using the gamma counter Wizard (PerkinElmer). The protein content of cell homogenates was measured as described above. Measurements for total binding were performed in triplicate, while measurements for nonspecific binding were performed in duplicates.
Calculations were performed as previously described. , Plots of “total binding” = f(radioligand) were analyzed by nonlinear regressions using the model of “one site-total, accounting for ligand depletion” as implemented in GraphPad Prism and plots of “nonspecific binding” = f(radioligand) were analyzed by linear regressions (Figure S3). For the ligand depletion model, the term “NS” was constrained to the respective slopes obtained by the linear regressions. The terms “SpecAct” (obtained with standard curves, Figure S4) and “Vol” (0.2 mL, assay volume) were also constrained. […]

By logD is commonly meant lipophilicity at a set pH, counting ionised and neutral species. Turning to `Cc1ccc(CCCC(=O)NCCCC[C@H](NC(=O)c2ccc(-n3cc(C[C@H](NC(=O)CC[C@H](C(=O)O)N4CCN(CC(=O)O)CCN(CC(=O)O)CC4)C(=O)NCCOCCOCC(=O)N[C@@H](CCCCN)C(=O)N[C@H]4CSSC[C@@H](C(=O)N[C@H](C(=O)O)[C@@H](C)O)NC(=O)[C@@H](Cc5c[nH]c6ccccc56)NC(=O)[C@@H](Cc5ccccc5)NC(=O)[C@H]([C@@H](C)O)NC(=O)[C@H](Cc5ccc(O)cc5)NC4=O)nn3)cc2)C(N)=O)cc1` [[64Cu]Cu-NODAGA-cLAB4-scrTATE, metal not drawn] (X1-[Ala(1-(4-CO-Ph)triazol-4-yl)](X2)[AEEA]KCYT[dF][dW]CT-OH; disulfide 4-9), the half-life in series [1] (37 °C, up to 24 h, single experiment, read-out: t1/2 (plasma), mouse) was more than 24 h; in series [3], more than 24 h. Moreover, in series [1] (24 h, radio-HPLC), the “hydrolysis of the primary amide in mouse plasma” value is “hydrolyzed”. The logD in series [2] was -2.17. The “Kd [SST2]” value at SST2 (60 min 37 °C, mean (±SEM) of 2–4 experiments) was “no binding was detected and n.b”. For the same compound, the Bmax result on SST2 (mean (±SEM)) is on record as “n.b”.
